Experimental data reported in ChEMBL document CHEMBL5209585, “FFN206 based assay for SLC18A2 using HEK-293 SLC18A2 OE cells” (2022).

Target: Synaptic vesicular amine transporter (Homo sapiens, UniProt Q05940)
Test: Substrate uptake and inhibition of the Vesicular Amine Transporter 2 (VMAT2, SLC18A2) as assessed by uptake of a fluorescent substrate (FFN206) in HEK-293 JumpIN-SLC18A2 cells (PubChem AID: 1794817)
Format: functional, cell-based, HEK293

Chain of Synaptic vesicular amine transporter (Q05940 whole entry): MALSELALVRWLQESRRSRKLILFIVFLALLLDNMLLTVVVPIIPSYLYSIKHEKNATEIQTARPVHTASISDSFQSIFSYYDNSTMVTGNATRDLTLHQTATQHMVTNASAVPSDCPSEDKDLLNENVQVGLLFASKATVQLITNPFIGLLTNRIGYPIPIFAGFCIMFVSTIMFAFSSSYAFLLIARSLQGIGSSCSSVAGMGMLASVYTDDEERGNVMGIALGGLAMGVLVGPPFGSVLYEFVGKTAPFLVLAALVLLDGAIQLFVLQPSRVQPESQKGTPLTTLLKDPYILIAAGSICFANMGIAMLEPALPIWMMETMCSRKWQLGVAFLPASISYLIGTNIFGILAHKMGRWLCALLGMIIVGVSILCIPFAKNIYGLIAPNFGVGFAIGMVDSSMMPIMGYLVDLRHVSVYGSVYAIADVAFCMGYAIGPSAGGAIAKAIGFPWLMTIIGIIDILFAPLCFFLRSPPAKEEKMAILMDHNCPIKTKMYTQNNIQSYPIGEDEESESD

For `CNc1ccc2c(CCN)cc(=O)oc2c1`, the EC50 was 3560 nM.

Molecule `COc1cc2c(cc1OC)C1CC(=O)C(CC(C)C)CN1CC2` (configuration not stated) [TETRABENAZINE] has an IC50 of 19.8 nM.
